This passage reports IC50 results from patent US7425557B2, “Inhibitors of glycogen synthase kinase 3” (Novartis Vaccines and Diagnostics, Inc., priority 1998, dated 2008).

As usually defined, the IC50 is the point on the concentration scale where inhibition reaches its midpoint.

The structures appear in SMILES notation.

Sequence of human GSK3β (P49841 whole entry): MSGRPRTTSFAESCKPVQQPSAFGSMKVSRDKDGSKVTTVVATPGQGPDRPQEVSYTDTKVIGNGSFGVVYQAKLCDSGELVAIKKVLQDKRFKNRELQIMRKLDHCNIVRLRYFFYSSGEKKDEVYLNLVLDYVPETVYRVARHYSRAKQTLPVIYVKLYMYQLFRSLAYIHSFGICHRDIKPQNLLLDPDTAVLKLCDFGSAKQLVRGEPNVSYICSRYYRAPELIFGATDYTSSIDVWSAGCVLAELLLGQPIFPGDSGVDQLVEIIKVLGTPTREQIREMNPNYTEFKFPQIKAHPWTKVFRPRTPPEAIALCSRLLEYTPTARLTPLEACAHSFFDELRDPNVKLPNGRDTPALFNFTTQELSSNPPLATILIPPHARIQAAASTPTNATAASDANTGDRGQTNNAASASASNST

In this assay the target is human GSK3β (Homo sapiens, UniProt P49841). As to the kind of experiment: Screening for GSK3 inhibitory activity using a cell-free assay. The note with it: read-out: IC50 with respect to GSK3. In kind it is biochemical. In a few lines:
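Radiometric cell-free assay with recombinant human GSK3β phosphorylating a biotinylated peptide substrate for 3 h. Reactions were stopped with 50 μM ATP/20 mM EDTA and captured on streptavidin plates. Incorporated radiolabel was counted by scintillation and plotted against compound concentration.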
For `CC(C)(C)OC(=O)c1cnc(NCCNc2ccc([N+](=O)[O-])cn2)nc1-c1ccc(C#N)cc1` [tert-butyl 4-(4-cyanophenyl)-2-({2-[(5-nitro(2-pyridyl))amino]-ethyl}amino)pyrimidine-5-carboxylate], the concentration for half-maximal inhibition (IC50) was at most 1000 nM.
Under `N#Cc1cnc(NCCNc2ccc([N+](=O)[O-])c(N)n2)nc1-c1ccc(Cl)cc1Cl` [2-({2-[(6-amino-5-nitro(2-pyridyl))amino]ethyl}amino)-4-(2,4-dichlorophenyl)pyrimidine-5-carbonitrile] stands at most 1000 nM; under `N#Cc1cnc(NCCNc2ccc([N+](=O)[O-])cn2)nc1-c1ccccc1` [2-({2-[(5-nitro(2-pyridyl))amino]ethyl}amino)-4-phenylpyrimidine-5-carbonitrile], at most 1000 nM.
In the case of `Cc1cccc(CNc2nccc(-c3ccc(C(N)=O)cc3)n2)c1` [4-(2-{[(3-methylphenyl)-methyl]amino}pyrimidin-4-yl)benzamide], the IC50 is at most 10000 nM.
Under `N#Cc1ccc(NCCNc2ncc(-c3ncc[nH]3)c(-c3ccc(F)cc3Cl)n2)nc1` [6-[(2-{[4-(2-chloro-4-fluorophenyl)-5-imidazol-2-ylpyrimidin-2-yl]amino}ethyl)amino]pyridine-3-carbonitrile] stands at most 1000 nM; under `NC(=O)c1ccc(-c2ccnc(NCCNc3ccc(C(F)(F)F)cn3)n2)cc1` [4-{2-[(2-{[5-(trifluoromethyl)-2-pyridyl]amino}-ethyl)amino]pyrimidin-4-yl}benzamide], at most 1000 nM.
Under `CCOC(=O)c1cnc(NCCc2ccccn2)nc1-c1cccc([N+](=O)[O-])c1` [ethyl 4-(3-nitrophenyl)-2-[(2-(2-pyridyl)ethyl)-amino]pyrimidine-5-carboxylate] stands at most 10000 nM; under `CCOC(=O)c1c(CC)nc(NCCNc2ccc([N+](=O)[O-])cn2)nc1-c1ccc(C#N)cc1` [ethyl 4-(4-cyano-phenyl)-6-ethyl-2-({2-[(5-nitro(2-pyridyl))amino]ethyl}amino)pyrimidine-5-carboxylate], at most 1000 nM.
In the case of `CC(=O)Nc1cnc(NCCNc2ccc([N+](=O)[O-])cn2)nc1-c1ccc(Cl)cc1Cl` [N-[4-(2,4-dichlorophenyl)-2-({2-[(5-nitro(2-pyridyl))amino]ethyl}amino)pyrimidin-5-yl]-acetamide], the IC50 is at most 1000 nM.
For the compound `NC(=O)c1ccc(-c2ccnc(NCc3ccc(-c4cccc(N)c4)cc3)n2)cc1` [4-[2-({[4-(3-aminophenyl)phenyl]methyl}amino)pyrimidin-4-yl]benzamide], the IC50 was at most 10000 nM.
Under `N#Cc1cnc(NCCNc2ccc([N+](=O)[O-])c(N)n2)nc1-c1ccc(Cl)c(Cl)c1` [2-({2-[(6-amino-5-nitro(2-pyridyl))amino]ethyl}amino)-4-(3,4-dichlorophenyl)pyrimidine-5-carbonitrile] stands at most 10000 nM; under `NC(=O)c1ccc(-c2ccnc(NCCCOc3ccccc3)n2)cc1` [4-{2-[(3-phenoxypropyl)amino]pyrimidin-4-yl}benzamide], at most 10000 nM; under `CN(C)CCc1noc(-c2cnc(NCCNc3ccc([N+](=O)[O-])c(N)n3)nc2-c2ccc(Cl)cc2Cl)n1` [(2-{5-[2-({2-[(6-amino-5-nitro(2-pyridyl))amino]-ethyl}amino)-4-(2,4-dichlorophenyl)pyrimidin-5-yl](1,2,4-oxadiazol-3-yl)}ethyl)-dimethylamine], at most 1000 nM.
Under `N#Cc1ccc(-c2nc(NCCNc3ccc([N+](=O)[O-])cn3)nc(-c3ccoc3)c2C(=O)O)cc1` [4-(4-cyanophenyl)-6-(3-furyl)-2-({2-[(5-nitro(2-pyridyl))-amino]ethyl}amino)pyrimidine-5-carboxylic acid] stands at most 1000 nM; under `NC(=O)c1ccc(-c2ccnc(NCCNc3ccc4ccccc4n3)n2)cc1` [4-(2-{[2-(2-quinolylamino)ethyl]amino}pyrimidin-4-yl)benzamide], at most 1000 nM; under `COc1ccc(CNC(=O)c2ccc(-c3ccnc(NCCNc4ccc([N+](=O)[O-])cn4)n3)cc2)cc1` [N-[(4-methoxyphenyl)methyl]{4-[2-({2-[(5-nitro(2-pyridyl))amino]ethyl}-amino)pyrimidin-4-yl]phenyl}carboxamide], at most 10000 nM.
Consider `CCOC(=O)c1cnc(NCCNc2ccc([N+](=O)[O-])cn2)nc1NCc1ccccc1Cl` [ethyl 4-{[(2-chlorophenyl)methyl]amino}-2-({2-[(5-nitro(2-pyridyl))amino]ethyl}amino)pyrimidine-5-carboxylate], for which the half-inhibitory concentration (IC50) is at most 10000 nM.
Under `O=[N+]([O-])c1ccc(NCCNc2ncc(-n3nnc4ccccc43)c(-c3ccc(Cl)cc3Cl)n2)nc1` [[5-benzotriazolyl-4-(2,4-dichlorophenyl)pyrimidin-2-yl]{2-[(5-nitro(2-pyridyl))amino]ethyl}amine] stands at most 1000 nM; under `CN(C)CCOC(=O)Nc1cnc(NCCNc2ccc([N+](=O)[O-])cn2)nc1-c1ccc(C#N)cc1` [[2-(dimethyl-amino)ethoxy]-N-[4-(4-cyanophenyl)-2-({2-[(5-nitro(2-pyridyl))amino]ethyl}amino)-pyrimidin-5-yl]carboxamide], at most 1000 nM; under `CCOC(=O)c1cnc(NCCNc2ccc([N+](=O)[O-])c(NCc3ccccc3)n2)nc1-c1ccc(C#N)cc1`, at most 10000 nM.
Under `O=C(O)c1c(-c2ccc([N+](=O)[O-])cc2)nc(NCCNc2ccc([N+](=O)[O-])cn2)nc1C1CCCCC1` [4-cyclohexyl-2-({2-[(5-nitro(2-pyridyl))amino]ethyl}amino)-6-(4-nitrophenyl)pyrimidine-5-carboxylic acid] stands at most 10000 nM.
Under `CCOC(=O)c1c(CC)nc(NCCNc2ccc([N+](=O)[O-])cn2)nc1-c1ccc(C(N)=O)cc1` [ethyl 4-(4-carbamoylphenyl)-6-ethyl-2-({2-[(5-nitro(2-pyridyl))amino]ethyl}amino)pyrimidine-5-carboxylate] stands at most 1000 nM.
For `Cc1cn(-c2cnc(NCCNc3ccc([N+](=O)[O-])c(N)n3)nc2-c2ccc(Cl)cc2Cl)c(C)n1`, the IC50 was at most 1000 nM.
In the case of `N#Cc1ccc(-c2nc(NCCNc3ccc([N+](=O)[O-])cn3)ncc2C(=O)NC(CO)C(N)=O)cc1` (centres unmarked) [N-(1-carbamoyl-2-hydroxyethyl)[4-(4-cyanophenyl)-2-({2-[(5-nitro(2-pyridyl))-amino]ethyl}amino)pyrimidin-5-yl]carboxamide], the IC50 is at most 1000 nM.
Under `CN1CCN(c2cnc(NCCNc3ccc(C#N)cn3)nc2-c2ccc(Cl)cc2Cl)C(=O)C1` [6-[(2-{[4-(2,4-dichlorophenyl)-5-(4-methyl-2-oxo-1-piperazinyl)-2-pyrimidinyl]amino}ethyl)amino]-nicotinonitrile] stands at most 10000 nM.
Under `CCOC(=O)c1cnc(NCCNc2ccc([N+](=O)[O-])cn2)nc1-c1ccc(F)cc1` [ethyl 4-(4-fluorophenyl)-2-({2-[(5-nitro(2-pyridyl))amino]ethyl}amino)pyrimidine-5-carboxylate] stands at most 1000 nM.
Turning to `CCOC(=O)c1c(-c2ccncc2)nc(NCCNc2ccc([N+](=O)[O-])cn2)nc1-c1ccc(C(N)=O)cc1`, the IC50 was at most 1000 nM.
For `Nc1nc(NCCNc2ncc(-c3ncc[nH]3)c(-c3ccc(F)cc3Cl)n2)ccc1[N+](=O)[O-]` [{2-[(6-amino-5-nitro(2-pyridyl))amino]ethyl}[4-(2-chloro-4-fluorophenyl)-5-imidazol-2-ylpyrimidin-2-yl]amine], the IC50 was at most 1000 nM.
Under `O=[N+]([O-])c1ccc(-c2ccnc(NCCNc3ccccn3)n2)cc1` [[4-(4-nitrophenyl)pyrimidin-2-yl][2-(2-pyridylamino)ethyl]amine] stands at most 10000 nM; under `N#Cc1ccc(NCCNc2nccc(-c3ccc(C(=O)NCc4cccc(Br)c4)cc3)n2)nc1` [N-[(3-bromophenyl)methyl]{4-[2-({2-[(5-cyano(2-pyridyl))amino]ethyl}-amino)pyrimidin-4-yl]phenyl}carboxamide], at most 1000 nM.
In the case of `CCOC(=O)c1cnc(NCCNc2ccc([N+](=O)[O-])cn2)nc1-c1ccc(F)cc1F` [ethyl 4-(2,4-difluorophenyl)-2-({2-[(5-nitro(2-pyridyl))amino]ethyl}amino)pyrimidine-5-carboxylate], the 50% inhibitory concentration (IC50) is at most 10000 nM.
In the case of `CCOC(=O)c1cnc(NCCNc2ccc([N+](=O)[O-])cn2)nc1-c1cnc2ccccc2c1` [ethyl 2-({2-[(5-nitro(2-pyridyl))amino]ethyl}amino)-4-(3-quinolyl)pyrimidine-5-carboxylate], the IC50 is at most 10000 nM.
As for `O=C(NCc1cccc(Br)c1)c1ccc(-c2ccnc(NCCNc3ccc([N+](=O)[O-])cn3)n2)cc1` [N-[(3-bromophenyl)methyl]{4-[2-({2-[(5-nitro(2-pyridyl))amino]ethyl}amino)pyrimidin-4-yl]phenyl}carboxamide], the IC50 is at most 10000 nM.
Under `O=C(O)c1ccc(-c2nc(NCCNc3ccc([N+](=O)[O-])cn3)nc(-c3ccc([N+](=O)[O-])cc3)c2C(=O)O)cc1` [4-(4-carboxyphenyl)-2-({2-[(5-nitro(2-pyridyl))amino]-ethyl}amino)-6-(4-nitrophenyl)pyrimidine-5-carboxylic acid] stands at most 1000 nM; under `CCOC(=O)c1cnc(NCCNc2ccc([N+](=O)[O-])cn2)nc1-c1ccc(S(N)(=O)=O)cc1` [ethyl 2-({2-[(5-nitro(2-pyridyl))amino]ethyl}amino)-4-(4-sulfamoylphenyl)pyrimidine-5-carboxylate], at most 10000 nM.
On to `O=[N+]([O-])c1ccc(NCCN(CCN2CCCC2)c2ncc(-n3ccnc3)c(-c3ccc(Cl)cc3Cl)n2)nc1` [[4-(2,4-dichlorophenyl)-5-imidazolylpyrimidin-2-yl]{2-[(5-nitro(2-pyridyl))amino]ethyl}(2-pyrrolidinylethyl)amine], for which the IC50 is at most 1000 nM.
On to `Nc1nc(NCCNc2ncc(CN3CCOCC3)c(-c3ccc(Cl)cc3Cl)n2)ccc1[N+](=O)[O-]` [{2-[(6-amino-5-nitro(2-pyridyl))amino]ethyl}[4-(2,4-dichlorophenyl)-5-(morpholin-4-ylmethyl)pyrimidin-2-yl]amine], for which the IC50 was at most 1000 nM.
Consider `O=[N+]([O-])c1ccc(NCCNc2ncc(-c3ccc(F)cc3)cn2)nc1` [[5-(4-fluorophenyl)pyrimidin-2-yl]{2-[(5-nitro(2-pyridyl))amino]ethyl}amine], for which the IC50 is at most 10000 nM.
